A short description of the data set: pKa was determined. The format is physicochemical.

A word on the pKa: it is the pH at which an ionisable group is half protonated. Low values mean a group that gives up its proton readily, high ones a group that holds its proton tightly.

The molecule `COc1ccc(N)cc1` registered a pKa of 5.3. Turning to `CC(C)(C)N` [TERT-BUTYLAMINE], the pKa came out at 10.8.

Values taken from ChEMBL document CHEMBL1122775, “NMR spectroscopic studies of intermediary metabolites of cyclophosphamide. A comprehensive kinetic analysis of the interconversion of cis- and trans-4-hydroxycyclophosphamide with aldophosphamide and the concomitant partitioning of aldophosphamide between irreversible fragmentation and reversible …” (J Med Chem, 1984).
